Results taken from patent US11654136B2, “Phosphoinositide 3-kinase inhibitor with a zinc binding moiety” (Curis, Inc., priority 2011, dated 2023).

Assays:
[1] = tested on: PI3K-AKT-mTOR pathway, RAF-MEK-ERK pathways, RTK protein levels, p53 and p21; assay: Pharmacodynamics, Western blots of Daudi tumor tissue extracts; type: in vivo, Scid mice; conditions: single dose 25, 50 and 100 mg/kg; Daudi tumors
Description: Protein was extracted from tumor tissues using a Tissuelyser (Qiagen, Valencia, Calif.) according to the manufacturer's instructions. 30 ug of protein was routinely used for WB analysis as described above. Cell lysates were resolved on NuPAGE Novex 4-12% Bis-Tris gels (Invitrogen) and transferred to nitrocellulose membranes (Bio-Rad Laboratories, Hercules, Calif.). The blots were probed with various primary antibodies overnight at 4° C. GAPDH (glyceraldehyde 3-phosphate dehydrogenase, 1:30,000, Abcam, Cambridge, Mass.) was used as an internal control for each assay. Membranes were then incubated with infrared labeled secondary antibodies (1:10000) conjugated-IR Dye-800 (Rockland Immunochemicals, Inc. Gilbertsville, Pa.) or conjugated-Alexa 680 (Invitrogen). Membranes were imaged with the Odyssey Infrared Imaging System (Li-Cor Biotechnology, Lincoln, Nebr.).

[2] = tested on: EGFR, HER2, HER3, and MET; assay: Western blot of receptor tyrosine kinases in H1975 and BT-474 cells; type: cell-based; conditions: H1975 NSCLC cells and BT-474 breast cancer cells; 16 h
Description: (§1) Cell extracts were prepared in the presence of SDS and 2-mercaptoethanol and resolved in polyacrylamide gels. Proteins were transferred to nitrocellulose filter and blotting was done using standard procedures with blocking solutions (Li-Cor Bioscience) containing the indicated primary antibody. Primary antibodies against p-EGFR, EGFR, p-HER2, HER2, p-HER3, HER3, p-MET, MET, p-bRaf, p-cRaf, pMEK, MEK, p-ERK, ERK and tubulin were purchased from Cell Signaling Technology. Secondary antibody conjugated with IRdye 680, 800CW were used and the signal was detected with Li-Cor Odyssey Imager.

Raf, MEK, and ERK = assay: Western blot of RAF-MEK-ERK pathway in H460, A375, BT-474 and H1975 cells; type: cell-based; conditions: 100 nM, 16 hours
Description: as §1
One major limitation of PI3K inhibitors in the treatment of cancers is the activation of the RAF-MEK-ERK pathway. HDAC inhibitors are able to inhibit kinase levels in this signaling pathway in cancer cells via epigenetic modification.

[3] = tested on: p-STAT3 (Y-705) and p-Src; assay: Western blot in RPMI-8226 myeloma cells; type: cell-based; conditions: 1 μM, 16 h
MM1S human MM xenograft = assay: Combination with lenalidomide in the MM1S xenograft model; type: in vivo, SCID/Beige mice; conditions: 75 mg/Kg PO Qd (Mon-Fri); 17 days; single agent
Description: Female SCID/Beige mice at age 4 weeks were housed in ventilated micro-isolator cages (INNOCAGE®IVC, Innovive Inc., San Diego, Calif.) in a controlled climate, fed with sterile high-fat diet (Problab-RMH 2000) ad libitum and provided with sterilized water. All housing and supplies for SCID/Beige mice were sterilized by autoclaving before use. Mice were inspected daily including weekends/holidays by trained animal facility personnel and investigators. All animal procedures were performed under sterile conditions within a biosafety cabinet (for injections) or laminar flow hood (for animal husbandry and non-invasive procedures).
Cryopreserved MM1S human MM cells were thawed in a 37° C. water bath and cultured in RPMI medium plus 10% Fetal Bovine Serum (FBS) in a tissue culture incubator at 5% CO2. […] The implanted mice were monitored for general health and tumor development daily.
Tumors were detectable about two weeks following implantation. Tumor size was measured with a caliper. […]
During each animal study, tumors were measured with calipers, tumor size determined using the above mentioned formula, and tumor size changes in percentage calculated. Mouse body weights were measured with a scale twice per week. […] T/C values were calculated using the following formula: % T/C=100×ΔT/ΔC if ΔT>0. […]

[4] = Pharmacokinetics in SCID mice bearing Daudi tumors; type: in vivo; conditions: for Area under the Curve / Half-life / Cmax / Tmax: oral gavage; for Area under the Curve / Cmax / Tmax: dose not stated; for Half-life: dose of the table not stated (25, 50 or 100 mg/kg); for Cmax / Tmax: female, mouse
Description: Daudi (non-Hodgkin's lymphoma cell line) cells were implanted into female Scid (severe […] immune-deficient) mice.
At various time points following compound administration, three mice per time point were euthanized with CO2, and blood and tumor tissues were collected. Blood was collected into tubes containing sodium heparin. The plasma was separated via centrifugation. Plasma and tissues were stored at −80° C. for later analysis. A PE Sciex API-3000 LC-MS/MS system (Applied Biosystems, Inc., Foster City, Calif.) was used to analyze compound concentrations in plasma.

[5] = Plasma, Daudi tumor-bearing Scid mice

With `COc1ccc(-c2nc(N3CCOCC3)c3sc(CN(C)c4ncc(C(=O)NO)cn4)cc3n2)cn1` [Compound 1, N-hydroxy-2-(((2-(6-methoxypyridin-3-yl)-4-morpholinothieno[3,2-d]pyrimidin-6-yl)methyl)(methyl)amino)pyrimidine-5-carboxamide] the “Pharmacodynamic markers in tumor tissue (Western blots)” value [1] was “inhibits the PI3K-AKT-mTOR pathway, suppresses the RAF-MEK-ERK pathways, downregulates RTK protein levels and up-regulates tumor suppressor p53 and p21 levels”, the “Levels of phosphorylated and total EGFR, HER2, HER3, and MET” value [2] was “reduce the levels of phosphorylated and total receptor tyrosine kinases EGFR, HER2, HER3, and MET” and the “Activation of Raf, MEK, and ERK” value (Raf, MEK, and ERK) was “suppressed activation of Raf, MEK, and ERK”. For the same compound, the “p-STAT3 (Y-705) and p-Src” value [3] was “inhibited p-STAT3 (Y-705) and p-Src”, the Tumor growth (MM1S human MM xenograft) was “more effective than Lenalidomide at either 12.5 or 25 mg/Kg PO as single agents” and the “Area under the Curve” value [4, 5] was 1899.26 ng/mL * hr. The Half-life [4, 5] was 464 min, the “Area under the Curve” value ([4]; Tumor) was 3973.56 ng/mL * hr and the Half-life ([4]; Tumor) was 757.2 min. For the same compound, the Cmax ([4]; Tumor) was 1040 ng/mL, the Tmax ([4]; Tumor) was 6 min and the Cmax [4, 5] was 2290 ng/mL. The Tmax [4, 5] was 14.4 min, the “Distribution between plasma and tumor tissue” value ([4]; oral 25, 50 and 100 mg/kg) was “preferentially accumulates in tumor tissue in a dose dependent manner” and the “Plasma exposure versus dose” value ([4]; oral 25, 50 and 100 mg/kg, Daudi tumor-bearing Scid mice) was “dose-dependent exposure”.
